Values of other authors, collected in patent US5214030A, “Calcitonin gene-related peptides for treating erectile dysfunctions” (priority 1989, dated 1993).

Tested on: Cynomolgus monkey
Conditions: 1-2 intracavernosal injections per week over 12 months

## COc1ccc(Cc2nccc3cc(OC)c(OC)cc23)cc1OC [papaverine]
  findings in the erectile tissue: extensive fibrous formation in further parts of the erectile tissue
